Laboratory results from US20070197591A1, “USE OF PALIPERIDONE FOR THE TREATMENT OF A MENTAL DISORDER IN A PSYCHIATRIC PATIENT WITH REDUCED HEPATIC FUNCTION” (priority 2005, published 2007).
Like-named read-outs stand apart in the source and are kept apart here.

Legend:
[1] = Single-dose pharmacokinetics of IR paliperidone in subjects with moderate hepatic impairment vs normal hepatic function; format: in vivo, human; details: for CL renal / AUC(0-inf) / half-life / Tmax / Cmax: both sexes, human, 1 mg; for CL renal: plasma and urine; for AUC(0-inf) / half-life / Tmax / Cmax: plasma; for half-life: read-out: t1/2 (terminal half-life) (converted); for Tmax: read-out: tmax, median (range); for Ae, % dose: urine
Excerpt: Objectives: The primary objective of this study was to investigate the single-dose pharmacokinetics of immediate-release (IR) paliperidone, after oral administration, in subjects having moderate hepatic impairment (“hepatically-impaired subjects”) compared with subjects having normal hepatic function (“healthy subjects”). The secondary objective was to document the plasma protein binding and disposition of the enantiomers of paliperidone. In addition, the tolerability and safety profile of IR paliperidone was compared between hepatically impaired subjects and healthy subjects. Methodology: This was a single-dose, parallel-group, open-label, single-center, Phase I study of IR paliperidone in subjects having either normal or moderately impaired hepatic function. The groups, consisting of 10 subjects each, were demographically matched with respect to age, weight, sex, and ethnicity. The study consisted of a screening period of up to 3 weeks and an open-label, single-dose treatment period (Days 1 through 5). On Day 1, a single dose of 1 mg IR paliperidone oral solution was administered after a fast of at least 10 hours; subjects continued to fast for 4 hours following study drug administration. The 96-hour follow-up consisted of serial sample collection of blood and urine for pharmacokinetic analysis and safety and tolerability assessments. Subjects remained confined to the study site through the 72-hour pharmacokinetics sampling, and consumed standard institutional meals while in the study site. Subjects were released after the 72-hour sampling, then returned to the study site on Day 5 before the 96-hour pharmacokinetics sampling: end-of-study procedures were performed immediately hereafter. A blood sample for DNA isolation was collected to allow for genetic analysis as necessary. Diagnosis and Main Criteria for Inclusion: The study was conducted in men and women, aged 18 through 75 years, inclusive. One group of subjects had moderate hepatic impairment, with stable hepatic disease, a total Child-Pugh score of between 7 and 9, inclusive, and blood pressure that was controlled and stable on antihypertensive agents; the other group had normal hepatic function. Test Product, Dose and Mode of Administration, Batch No: 1 mg IR paliperidone (R076477) oral solution; batch 04C29/[…]. Criteria for Evaluation: Pharmacokinetics: Plasma and urine concentrations of the paliperidone enantiomers (+) R078543 and (-) R078544 were determined using an LC-MS/MS method. Concentrations of paliperidone were calculated as the sum of the enantiomer concentrations. In addition, serum and urine concentrations of creatinine were determined for the calculation of CLCR. The protein binding and unbound fraction was determined for the 2 paliperidone enantiomers. The unbound fraction for paliperidone was calculated. Based on the actual pharmacokinetic blood sampling times and actual urine collection periods, the following plasma and urine pharmacokinetic parameters were determined for paliperidone and its enantiomers: Cmax, tmax, tlast, AUClast, λZ, t1/2, AUC∞, % AUC∞,ex, CL/F, AUC∞+/- ratio, Ct+/- ratio per time point, unbound AUC∞, unbound CL/F or unbound CL (if relevant), Ae (per collection interval and overall), Ae,% dose, Excr. Rate, […], and CLNR. Pharmacokinetics: Descriptive statistics were evaluated for the plasma concentrations at each sampling time, and for all pharmacokinetic parameters of paliperidone and its enantiomers for each hepatic function group Graphical exploration of the paliperidone and enantiomer plasma concentrations and urine data, and the derived pharmacokinetic parameters, was performed. In addition, the enantiomer disposition was compared between the groups. Log-transformed PK parameters were fit to a general linear model with hepatic function grip as fixed effect.

[2] = Safety and tolerability of 1 mg IR paliperidone in healthy and hepatically-impaired subjects; format: in vivo, human
Method: Methodology: This was a single-dose, parallel-group, open-label, single-center, Phase I study of IR paliperidone in subjects having either normal or moderately impaired hepatic function. The groups, consisting of 10 subjects each, were demographically matched with respect to age, weight, sex, and ethnicity. The study consisted of a screening period of up to 3 weeks and an open-label, single-dose treatment period (Days 1 through 5). On Day 1, a single dose of 1 mg IR paliperidone oral solution was administered after a fast of at least 10 hours; subjects continued to fast for 4 hours following study drug administration. The 96-hour follow-up consisted of serial sample collection of blood and urine for pharmacokinetic analysis and safety and tolerability assessments. Subjects remained confined to the study site through the 72-hour pharmacokinetics sampling, and consumed standard institutional meals while in the study site. Subjects were released after the 72-hour sampling, then returned to the study site on Day 5 before the 96-hour pharmacokinetics sampling: end-of-study procedures were performed immediately hereafter. A blood sample for DNA isolation was collected to allow for genetic analysis as necessary. Safety: Adverse events, clinical laboratory tests, including prolactin, vital sign measurements, physical examinations, and 12-lad electrocardiograms (ECGs) were analyzed to assess safety. Safety: All subjects were analyzed; statistical analyses were description [? Does info need to be added here?].

[3] = Hepatically-Impaired Subjects, Total
[4] = Hepatically-Impaired Subjects, Unbound
[5] = oral, Healthy Subjects, Unbound
[6] = oral, Hepatically-Impaired Subjects, Total
[7] = oral, Hepatically-Impaired Subjects, Unbound
[8] = hepatically-impaired subjects (n = 10)

Cc1nc2n(c(=O)c1CCN1CCC(c3noc4cc(F)ccc34)CC1)CCCC2O (stereo not shown) [Paliperidone, paliperidone]
CL/F ([1]; Healthy Subjects, Total): 106 ± 34.9 mL/min | CLNR ([1]; Healthy Subjects, Total): 54.4 ± 23.7 mL/min | Vdz ([1]; Healthy Subjects, Total): 211 ± 59.6 L | CL/F ([1]; Healthy Subjects, Unbound): 370 ± 67.1 mL/min | CLNR ([1]; Healthy Subjects, Unbound): 188 ± 56.8 mL/min | Vdz ([1]; Healthy Subjects, Unbound): 748 ± 144 L | CL/F [1, 3]: 143 ± 43.4 mL/min | CLNR [1, 3]: 75.1 ± 16.2 mL/min | Vdz [1, 3]: 311 ± 65.2 L | CL/F [1, 4]: 386 ± 99.3 mL/min | CLNR [1, 4]: 205 ± 30.7 mL/min | Vdz [1, 4]: 857 ± 146 L | clearance and volume of distribution between the groups ([1]; based on unbound concentrations): comparable | Active renal clearance as share of the renal clearance ([1]; both groups): approximately 45% | median time to reach maximum plasma concentration ([1]; both groups): around 1 hour | CL renal ([1]; oral, Healthy Subjects, Total, read-out: CLR): 51.2 ± 13.4 mL/min | CL renal ([1]; oral, Hepatically-Impaired Subjects, Total, read-out: CLR): 67.4 ± 34 mL/min | CL renal ([1]; oral, healthy subjects (second value of '67.4 vs. 51.2'), read-out: Renal clearance): 51.2 mL/min | CL renal ([1]; oral, hepatically-impaired subjects (first value of '67.4 vs. 51.2'), read-out: Renal clearance): 67.4 mL/min | AUC(0-inf) ([1]; oral, Healthy Subjects, Total): 176 ± 64.4 ng·h/mL | half-life ([1]; oral, Healthy Subjects, Total): 23.6 h | Tmax ([1]; oral, Healthy Subjects, Total): 1 h | AUC(0-inf) [1, 5]: 45.8 ± 8.72 ng·h/mL | Cmax [1, 5]: 1.81 ± 0.292 ng/mL | Tmax [1, 5]: 1.25 h | AUC(0-inf) [1, 6]: 128 ± 42.5 ng·h/mL | Cmax [1, 6]: 4.57 ± 1.05 ng/mL | half-life [1, 6]: 26.5 h | Tmax [1, 6]: 1.25 h | AUC(0-inf) [1, 7]: 45.7 ± 12.6 ng·h/mL | Cmax [1, 7]: 1.59 ± 0.318 ng/mL | Tmax [1, 7]: 1.25 h | Cmax ([1]; po, Healthy Subjects, Total, 1 mg IR oral solution): 7.14 ± 2.28 ng/mL | dose excreted unchanged into urine ([1]; did not differ between the groups): Approximately 50% | CL/F higher in hepatically-impaired compared with healthy subjects ([1]; total): about 35% | volume of distribution higher in hepatically-impaired compared with healthy subjects ([1]; total Paliperidone): 47% | exposure (Cmax, AUC∞) between hepatic function groups after correction for unbound fraction ([1]; unbound): comparable | AUC∞ lower in hepatically-impaired compared with healthy subjects ([1]; unbound fraction): approximately 5% | Cmax lower in hepatically-impaired compared with healthy subjects ([1]; unbound fraction): approximately 12% | Ae, % dose ([1]; Healthy Subjects): 50.1 ± 7.94 % dose | Ae, % dose ([1]; Hepatically-Impaired Subjects): 44.7 ± 10.62 % dose | tolerability ([2]; 1 mg, healthy and hepatically-impaired subjects): tolerated equally well | clinically important abnormal ECG values (including QT values) ([2]; both groups): no subjects had clinically important abnormal ECG values | orthostatic hypotension ([2]; both groups): no subject in either group met the criteria for orthostatic hypotension | subjects with treatment-emergent increase in hepatic enzymes ([2]; healthy subjects): 1 | subjects with increases in prolactin levels reported as adverse events ([2]; healthy subjects (n = 10)): 6 | subjects with treatment-emergent increase in hepatic enzymes ([2]; hepatically-impaired subjects): 1 | subjects reporting dizziness [2, 8]: 2 | subjects with increases in prolactin levels reported as adverse events [2, 8]: 8
